These results are taken from patent US20210145768A1, “MODULATING IMMUNE RESPONSE VIA TARGETING OF OLFACTORY RECEPTOR ACTIVITY” (La Jolla Institute for Allergy and Immunology, priority 2018, published 2021).

Test [1] addresses T1, Olfr2 (Mus musculus, UniProt Q9QWU6).
T1 sequence (Q9QWU6 1-327): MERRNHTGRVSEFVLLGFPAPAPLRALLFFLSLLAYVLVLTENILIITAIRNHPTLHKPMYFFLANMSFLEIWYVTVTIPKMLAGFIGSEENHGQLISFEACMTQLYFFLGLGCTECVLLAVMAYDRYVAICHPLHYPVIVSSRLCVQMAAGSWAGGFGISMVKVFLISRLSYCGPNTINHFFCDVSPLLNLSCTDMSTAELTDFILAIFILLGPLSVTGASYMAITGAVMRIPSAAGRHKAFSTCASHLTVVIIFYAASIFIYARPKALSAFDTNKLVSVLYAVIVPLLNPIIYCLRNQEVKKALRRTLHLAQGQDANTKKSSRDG
The experiment in a line: En face atherosclerosis quantification in Apoe−/− mice fed western diet. The test is classed as in vivo. Also noted: Olfr2 expression was confirmed at the protein level on F4/80^+ vascular macrophages; from tissue; host or cells: explanted whole aortas, digested aortic cell suspensions (F4/80+ vascular macrophages) and blood monocytes of Apoe-/- C57BL/6J mice; living Apoe-/- mice for the in vivo study. To be noted: for atherosclerosis in mice: summary of in vivo injection experiments. On the procedure:
The effect of citral on atherosclerosis in Apoe−/− mice fed a high fat western diet, a widely used model of atherosclerosis, was investigated. Briefly, ApoE^−/− Mice (10 weeks old) were fed WD for 4 weeks before the inhibitor treatment, citral, was started. Citral at 10 mg/kg was diluted in 100 uL of PBS and injected I.P. every 3 days for 4 weeks for a total of 12 injections. During this time, mice continue to eat WD for a total of 8 weeks. […] Thus, blocking Olfr2 is anti-atherosclerotic, showing that Olfr2 contributes to atherosclerosis.
To test a possible impact of Olfr2 on atherosclerosis in vivo, male Apoe^−/− mice were fed WD for 8 weeks and injected octanal (10 μg/g) intraperitoneally for the last 4 weeks every three days for a total of 12 injections. […] Octanal had no effect on total cholesterol, LDL cholesterol, HDL cholesterol or triglycerides (FIG. 11A). Similarly, in a loss-of-function experiment, male Apoe^−/− mice were treated with citral (10 μg/g, 12 injections over 4 weeks), which reduced the size of atherosclerotic lesions by ˜40% (FIGS. 10F and G). Citral treatment like octanal had no effect on other parameters (FIG. 11A).
Male Apoe^−/− mice (9 to 10 wks old) were fed WD for 4 weeks. Oct or Cit were diluted in sterile phosphate buffered saline (PBS) (Gibco) at a final concentration of 10 μg/g. 100 μl were injected intraperitoneally (i.p.) every 3 days for 4 weeks (12 injections total) while maintaining WD administration. PBS+0.1% DMSO (Sigma Aldrich) was injected as a vehicle control following the same protocol. Mice were sacrificed, perfused with PBS implemented with 2% heparin (Fresenius Kabi USA, LLC) and aortas removed for en face atherosclerotic lesion assessment. Mouse whole blood (heart puncture) was collected in EDTA tubes. Leukocyte blood counts were determined with HemaVet 950 (Drew Scientific). Plasma was collected from blood centrifuged at 3000 g for 15 min at 4° C. and stored at −80° C. until further analysis.
After explant, each aorta was pinned out after 4% paraformaldehyde incubation at room temperature for at least 2 hours Staining for atherosclerotic plaque was performed by incubating samples in Sudan IV. Microphotographs of the luminal (endothelial) aspect were of the aortic surface were analyzed using Photoshop CS (Adobe Systems). Atherosclerotic lesion size measurement was performed by blinded investigators using Image-Pro Premier software (Media Cybernetics).

In test [2] the test system is Olfr2. Description: Olfr2, Rtp1 and Rtp2 mRNA expression (qPCR) in explanted aortas. The class given is cell-based, mouse. From the text: Next, Olfr2 expression in aortas harvested from western-type diet (WD)-fed male mice (n=5) was investigated^18. Briefly, whole aortas were harvested from Apoe^−/− mice fed western-like diet (WD) for 2 weeks and treated as described above. Relative expression of Olfr2 quantified by real time PCR analysis of Olfr2 expression normalized to expression of Gapdh and untreated control.
In addition, Rtp1 and Rtp2 expression in aortas harvested from Apoe−/− mice was investigated. Briefly, explanted aortas of Apoe−/− mice treated for 12h with Oct (10 μM) and/or lipopolysaccharide (LPS, 500 ng/mL). Rtp1 and Rtp2 expression was assessed by qPCR as described above. N=3 independent experiments (relative expression calculated by 2^−ΔΔCt method). Data are presented as means±SEM. *p<0.05, **p<0.01, ***p<0.005, ****p<0.001. p calculated by One-Way ANOVA test, Tukey's multiple comparisons test.
BMDMs and hMDMs were incubated in culture media for 12 h at 37° C. and 5% CO2 with Oct, (10 μM), LPS (500 ng/mL) alone or combined with Oct (LPS+Oct) and DMSO (0.1%) as a control and lysed with Qiazol (500 μL; Qiagen) Similarly, whole aortas incubated as previously described were transferred into Qiazol (500 μl; Qiagen) and digested with gentleMACS™ Dissociator (Miltenyi).
Total RNA was quantified using a nanodrop spectrophotometer (Peqlab) and 500 ng were reverse transcribed into cDNA using Omniscript reverse transcriptase (Qiagen). Real time PCR reactions were performed according to the RT^2 SYBR green gene expression assay protocol (Qiagen). RT2 SYBR Green qPCR master mix and premade RT^2 qPCR Primer Assays for mouse Olfr2, Rtp1, Rtp2, Ccl2, Ccl4, Tnf, Nos2 and Gapdh were used. Similarly, real time PCR analysis of hMDMs samples was performed following the RT^2 SYBR green gene expression assay protocol (Qiagen), applying RT^2 SYBR Green qPCR master mix and premade RT^2 qPCR Primer Assays for human OR6A2, TNF, IL-6, NOS2 and GAPDH. The results were calculated applying the 2^−ΔΔCT method^32 using Gapdh/GAPDH as housekeeping gene.
On the technique in general: In qPCR the cycle at which signal appears reflects the starting amount.

Structures are written as SMILES. Where “and” joins values, the source holds several entries; their conditions need not be identical. Identical values can stand only once.

Regarding `CC(C)=CCCC(C)=CC=O` [citral], the “reduction of atherosclerotic lesion size” value on Olfr2 [1] (Apoe−/− mice on WD 8 weeks, citral 10 μg/g i.p. every 3 days, 12 injections over last 4 weeks) is ~50% and ~40%. Also, on Olfr2 [1] (Apoe−/− mice on WD, citral 10 mg/kg i.p., 12 injections, untreated ~8%, P<0.02), the “atherosclerotic lesions, % of the aortic area” value was approximately 5%. The atherosclerosis in mice result on Olfr2 [1] is “protected mice from atherosclerosis”. Moreover, the “Olfr2 mRNA expression” value in the test with Olfr2 [2] (citral, data not shown) was “did not affect”.

As for `CCCCCCCC=O` [octanal], the “lesion size, en face staining of aortic arches” value at Olfr2 [1] (Apoe−/− mice on WD 8 weeks, octanal 10 μg/g i.p., 12 injections over last 4 weeks) is “more than doubled”. Moreover, at Olfr2 [1], the atherosclerosis in mice result was “exacerbated atherosclerosis”. Also, the “aortic Olfr2, Rtp1 and Rtp2 mRNA” value in the test on Olfr2 [2] (LPS 500 ng/mL + octanal 10 μM ex vivo, 12 h) is listed as “significantly enhanced”. The “Olfr2 expression (qRT-PCR)” value with Olfr2 [2] (LPS + octanal) is reported as “further increased”; in the test on Olfr2 [2] (octanal alone), “no effect”.
